The subject of this assay is Male CD Sprague-Dawley rats. As to the kind of experiment: Gastrointestinal transit in rats (51Cr marker: gastric emptying and geometric center). The class given is in vivo, rat. The settings on record: for effect on gastrointestinal transit: 0.1 mg/kg oral; for % Gastric Emptying: 51Cr marker 15 min after dose, killed 20 min later; for % Gastric Emptying / Geometric Center: mean ± SEM; for Geometric Center: stomach = segment 0, intestine segments 1-10; for increase in gastric emptying / increase in geometric center (transit through stomach and small intestine): relative to vehicle. How it is done: Male CD Sprague-Dawley rats (175-225 grams) are fitted with tail cups to prevent coprophagy and fasted overnight. The next day the rats are orally given either vehicle (water, 5 ml/kg) or a solution of the test compound in water at doses of 0.1, 0.5, 1 or 5 mg/kg p.o. Fifteen minutes later, the rats are given 1.0 ml of an evaporated milk solution containing 20,000 cpm of ^51Cr as sodium chromate.
The rats are killed 20 minutes after administration of the radioactive marker. The gastroesophageal, pyloric, and ileocecal junctions are ligated, the stomach is removed and the small intestine is divided into ten equal lengths. The stomach and each length of intestine are assayed for radioactivity with a gamma counter. Gastric emptying is determined for each rat by comparing the amount of radioactivity in the intestine relative to the total in the intestine plus stomach. In addition, the geometric center of the distribution of the radioactive marker is used to measure the overall transit rate through the stomach and intestine. Geometric center is calculated as: Σ((fraction of ^51Cr per segment)×(segment number)). For these calculations the stomach is segment number 0 while the ten intestinal segments are designated 1 to 10. Thus, a geometric center of 0.0 would indicate that the entire load of ^51Cr had remained in the stomach.
Results from test compound-treated rats and vehicle-treated rats are compared using one-way ANOVA and Dunnett's test for simultaneous multiple comparisons. The effect of the test compound on gastrointestinal transit in rats is evaluated by measuring gastric emptying and the geometric center of distribution of an orally administered radioactive marker.

Each structure is given as a SMILES string.

`CN1N=C2CCN(C(=O)[C@@H](COCc3ccccc3)NC(=O)C(C)(C)N)C[C@@]2(Cc2ccccc2)C1=O` [first test compound, 2-amino-N-(2-(3a-(R)-benzyl-2-methyl-3-oxo-2,3,3a,4,6,7-hexahydro-pyrazolo-[4,3-c]pyridin-5-yl)-1-(R)-benzyloxymethyl-2-oxo-ethyl)-isobutyramide]: the “effect on gastrointestinal transit” value is reported as “no effect”. Under “0.1 mg/kg p.o.”, the “% Gastric Emptying” value is listed as 62.5 ± 3.4% and the “Geometric Center” value amounted to 2.82 ± 0.17. Moreover, under “0.5 mg/kg oral”, the “increase in gastric emptying” value was found to be 25%; the “increase in geometric center (transit through stomach and small intestine)” value (from here on “increase in geometric center”) is recorded as 39%. For the same compound, for the setting “0.5 mg/kg p.o.”, the “% Gastric Emptying” value is “*79.0 ± 4.2%” and the “Geometric Center” value is listed as “*4.03 ± 0.26”. For the same compound, the “increase in geometric center” value (1 mg/kg oral) was found to be 67%. Besides, the “increase in gastric emptying” value (1.0 mg/kg oral) stood at 45%. Moreover, for the setting “1 mg/kg p.o.”, the “% Gastric Emptying” value worked out at 92% and the “Geometric Center” value is on record as “*4.81 ± 0.21”. For the setting “1 mg/kg p.o., listed as 1st test compound”, the “% Gastric Emptying” value was “*91.5 ± 1.6%”. Also, the “increase in geometric center” value (5 mg/kg oral) came to 68%. The “increase in gastric emptying” value (5.0 mg/kg oral) turned out to be 49%. Also, under “5 mg/kg p.o.”, the “% Gastric Emptying” value worked out at 94% and the “Geometric Center” value is listed as “*4.85 ± 0.19”. Further, the “% Gastric Emptying” value (5 mg/kg p.o., listed as 1st test compound) is listed as “*93.7 ± 1.4%”.
In the case of `CC(C)(N)C(=O)N[C@H](COCc1ccc(F)cc1F)C(=O)N1CCC2=NN(CC(F)(F)F)C(=O)[C@]2(Cc2ccccn2)C1` [second test compound], the “effect on gastrointestinal transit” value is listed as “no effect”. Also, for the setting “0.1 mg/kg p.o.”, the “% Gastric Emptying” value turned out to be 68.9 ± 3.4% and the “Geometric Center” value amounted to 3.1 ± 0.2. For the same compound, where the note is “0.5 mg/kg oral”, the “increase in gastric emptying” value is 21%; the “increase in geometric center” value is 37%. Moreover, for the setting “0.5 mg/kg p.o.”, the “% Gastric Emptying” value is “*79.5 ± 3.6%” and the “Geometric Center” value is on record as “*3.9 ± 0.3”. Further, the “increase in geometric center” value (1 mg/kg oral) is on record as 50%. The “increase in gastric emptying” value (1.0 mg/kg oral) was 37%. Besides, under “1 mg/kg p.o.”, the “% Gastric Emptying” value is given as “*89.9 ± 2.3%” and the “Geometric Center” value was “*4.3 ± 0.2”. Moreover, where the note is “5 mg/kg oral”, the “increase in geometric center” value is on record as 42%. Also, the “increase in gastric emptying” value (5.0 mg/kg oral) came to 34%. Under “5 mg/kg p.o.”, the “% Gastric Emptying” value is “*88.3 ± 2.4%” and the “Geometric Center” value is “*4.1 ± 0.2”. Besides, the “gastric emptying and transport through the upper GI tract” value (doses of 0.5, 1 and 5 mg/kg oral) was “increased”.

The values are drawn from patent publication US6852722B2, “Compositions and methods for stimulating gastrointestinal mobility” (Pfizer Inc., priority 2000, dated 2005).
